Biological target: T1, porcine pepsin A (Sus scrofa, UniProt P00791)
T1 construct: purchased Worthington Biochemical Corporation
Assay: competitive binding assay, fluorescence polarization with pepstatin-Alexa647
Details: 100 nM probe, 0.03 U/ul porcine pepsin A, 37.5% DMSO, 0.1 M HCl pH 1
Method: To examine whether HIV protease inhibitors bound and inhibited pepsin, we developed assays based on fluorescence polarization which measures size-dependent molecular rotation thereby permitting detection of degradation, association and dissociation events^80. A competitive binding assay was designed employing pepstatin, an inhibitor of sub-nanomolar affinity^81. Pepstatin-Alexa647 was synthesized by dissolving 1 mg pepstatin A (Sigma-Aldrich) in a 50:50 mixture of dimethylformamide (DMF) and dimethylsulfoxide (DMS) followed by the addition of N,N,N′,N′-Tetramethyl-O—(N-succinimidyl)uronium tetrafluoroborate (0.6 mg) and trimethylamine (10 μL) DMF. The mixture was stirred for 1 hour, after which 1 mg Alexa Fluor 647 Cadaverine, Disodium Salt (ThermoFisher Scientific) was added. After 2 hours, the solvents were evaporated under high vacuum (35° C.) and residue partially dissolved in 10% methanol and transferred onto a C18 cartridge (Waters Corporation, Milford, MA). Increasing percentages of methanol were used for the elution. Pepstatin-Alexa647 eluted at 45% methanol. An enzymatic inhibition assay was designed using casein substrate.^82 Bovine alpha casein (Sigma-Aldrich, St. Louis, MO) was labeled with Alexa Fluor 647 Carboxylic Acid, Succinimidyl Ester (ThermoFisher Scientific, Waltham, MA) as described.^82 Briefly, the two were combined at 2.5 ug/mg label to protein ratio in 0.1M sodium bicarbonate for 15 minutes and labeled casein was separated from unbound label in a Sephadex G-25 (Sigma-Aldrich) column comprised of 90×5 mm packed beads in a glass Pasteur pipette, eluted with dPBS pH7.4 (ThermoFisher Scientific). The fast-moving band (casein-bound fluorophore) was collected in ˜0.4 ml volume. […]
Assays were optimized using ranges of 0.3-1000 μM unlabeled pepstatin, 100-500 nM pepstatin-Alexa647 or casein-Alexa647 probe, 0.003-3 U/μl porcine pepsin (Worthington Biochemical Corporation, Lakewood, NJ), and 5-37.5% DMSO (HIV protease inhibitor diluent) in 0.1 M HCl, pH 1 with 0.01% v/v Tween-20 in 20 μl volumes in 384-well black optical plates (Nunc, Roskilde, DK) and read on a BioTek Cytation 5 (BioTek Instruments, Winooski, VT) with far red FP filter cube (excitation/emission 620/680 nm). […] Assays were performed twice with triplicate reactions read for five minutes and mean mP plotted against probe concentration (binding assay) or read at <2 minutes intervals over 30 minutes with mean mP of plotted over time (activity assay). Half maximal inhibitory concentration (IC50) of inhibitors were calculated from kinetic traces analyzed using an online tool (https://icekat.herokuapp.com/icekat)^83. mP was normalized to blank (absent inhibitor) to derive percent bound or activity.

T1 sequence (P00791 60-385): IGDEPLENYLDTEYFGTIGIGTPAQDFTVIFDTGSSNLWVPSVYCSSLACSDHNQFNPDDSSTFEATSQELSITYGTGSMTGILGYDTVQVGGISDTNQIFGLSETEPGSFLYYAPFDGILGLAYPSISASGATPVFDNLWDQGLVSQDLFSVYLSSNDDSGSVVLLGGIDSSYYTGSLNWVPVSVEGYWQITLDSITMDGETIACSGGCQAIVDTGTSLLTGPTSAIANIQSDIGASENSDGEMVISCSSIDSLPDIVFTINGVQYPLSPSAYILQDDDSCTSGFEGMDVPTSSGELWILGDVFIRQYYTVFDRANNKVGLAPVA

## CC(C)CN(C[C@@H](O)[C@H](Cc1ccccc1)NC(=O)O[C@H]1CO[C@H]2OCC[C@H]21)S(=O)(=O)c1ccc(N)cc1 [darunavir, [(3aS,4R,6aR)-2,3,3a,4,5,6a-hexahydrofuro[2,3-b]furan-4-yl]N-[(2S,3R)-4-[(4-aminophenyl)sulfonyl-(2-methylpropyl)amino]-3-hydroxy-1-phenylbutan-2-yl]carbamate]
  bound pepsin (competitive binding): low micromolar

Source: US20240041764A1, “Sustained-Release Oral Fosamprenavir Formulation for Treatment of Reflux” (The Medical College of Wisconsin, Inc., priority 2022, published 2024)
